Tested on: amyloid plaques in mice brains
Experiment: MicroPET images of transgenic mice
Format: in vivo
Conditions: Tg2576 mice; dynamic microPET, total acquisition time 55-77 min
Experimental: All the animal experiments were performed according to the established animal protocol. The transgenic mice (Tg2576) were anaesthetised via intravenous injection with a 40 uL solution of ketamine and xylazine (4:1) before the injection of the tracer radiolabelled with ^18F: 5-[^18F]-fluoro-8-hydroxy-7-iodoquinoline. The mice were placed in supine position and scanned using microPET. A dynamic microPET study was performed using 15 planes and 15 to 16 frames (dynamic sequence: 6×30 s, 4×1 min, 2×5 min, 2×10 min, and 1-2×20 min) for a total acquisition time of 55-77 min. Images were reconstructed using the appropriate algorithms (Filter-back projection algorithm) and a cut-off frequency of 0.5. Images were reconstructed by means of a filtered iteration resulting in an image resolution of 1.8 mm and a volumetric resolution of about 6 mm^3. Transverse planes were reoriented to obtain the coronal and axial sections of the mice brains. Regional uptake is expressed in activity per gram of tissue.

Oc1c(I)cc([18F])c2cccnc12 [5-[^18F]-fluoro-8-hydroxy-7-iodoquinoline]
detection of amyloid plaques in microPET images: adequate detection of the amyloid plaques

Reference: patent US20080063599A1, “Compounds Which Can Be Used To Diagnose And Monitor Diseases Associated With The Formation Of Amyloid Protein Fibrils” (priority 2002, published 2008)
